Source: article PMC4213378, “Pharmacokinetics and Efficacy of the Spleen Tyrosine Kinase Inhibitor R406 after Ocular Delivery for Retinoblastoma” (Pharmaceutical Research, 2014)

Experiments:
[1] = Vitreous pharmacokinetics after oral or subconjunctival administration; format: in vivo, mouse
Protocol: For oral delivery of R788, the target dose of 25 mg/kg R788 was administered by oral gavage as a 4 mM solution in 0.01 N citrate buffer, pH 6 ([9]). For subconjunctival administration, R788 was prepared at a concentration of 4 mM in 2% PEG-800 and filtered through a 0.22 μm filter prior to use (see Table S1). R788 was also administered subconjunctivally as a suspension at a concentration of 25 mM in 10% 2-hydroxylpropyl-β-cyclodextrin (HPβCD, Sigma-Aldrich). For subconjunctival administration, R406 phenylsulfonate salt was administered at a concentration of 800–900 μM as a cosolvent solution in a formulation of 5% Cremaphor-eL, 0.5% ethanol, 0.2% Tween 80 and 94.3% PBS, filtered through a 0.22 μm filter prior to use (see Table S2). R406 phenylsulfonate salt was also administered subconjunctivally at a dose of 31.4 mM solution in DMSO. R406 free base was administered subconjunctivally at a concentration of 6.5 mM as a 25% castor oil (Sigma-Aldrich) emulsion. This emulsion was prepared by mixing castor oil: ethanol (1:1) solution of R406 (approx. 35 mM), in vacuo evaporation of the ethanol, and centrifugation to remove any excess R406, then emulsifying the R406 oil phase in an aqueous phase comprised of Cremaphor-eL, Tween 80 and PBS (final composition of the emulsion: 25% castor oil, 5% Cremaphor-eL, 0.2% Tween-80, 69.8% PBS) by probe sonication. For intravitreal injection, R788 solution was prepared by filtering a 0.12 mM (120 μM) solution of R788 in saline through a 0.22 μm filter. […] For topical delivery, 25–30 mM suspensions were prepared in 5% HPβCD. R406 or R788 concentration in all formulations was determined by UPLC prior to study (in cases where formulation was filtered before administration, concentration was determined post-filtering) Table I.
For the systemic delivery study R788 was administered as a single bolus dose (25 mg/kg, 10 mL/kg volume) by oral gavage. For the subconjunctival administration study R788 or R406 (10 µL of formulation) was injected into the subconjunctival space of an anesthetized mouse using a Hamilton microliter syringe (Hamilton company, Reno NV). For the intravitreal administration study, R788 (5 μL of […] in saline) was administered to each eye via direct injection. To perform the intravitreal injection, mice were anesthetized, a small incision between the sclera and the cornea was created with a […] needle, and the R788 was injected into the vitreous using a Hamilton microliter syringe. For the topical administration study, R406 (2 μL of 25–30 mM suspension) was applied as a drop to the surface of each eye of an anesthetized mouse.
At serial time points (0.5, 1, 2, 4, and 8 h post-injection, n = 3 for each time point), blood was collected by terminal cardiac puncture after isoflurane anesthesia. Whole-blood samples were centrifuged immediately at 10,000×g for 5 min at 4°C to separate plasma. Once the cardiac puncture and blood collection was completed, the animal was perfused with 10 mL of saline and euthanized by cervical dislocation. Eyes were removed, rinsed in PBS, gently patted dry, then rinsed and dried again. Eyes were dissected and vitreous was collected. Plasma and vitreous samples were put on dry ice immediately after collection and stored at −80°C until analysis. For quantitative analysis methods and assay validation methods and results, see Supplementary Information.
Plasma and vitreous concentration time data were analyzed using non-compartmental analysis in WinNonlin 6.2 (Pharsight, Mountain View, CA), providing PK parameters including Cmax (maximum observed concentration), Tmax (time to reach maximum observed concentration), AUC (area under the concentration time curve) and MRT (mean residence time). AUC and AUMC (area under the concentration time first moment curve) values were estimated with the linear trapezoidal method, with parameters calculated using mean concentration values at each time point. […]

[2] = Maximum solubility in PBS or saline; format: physicochemical; details: PBS; read-out: maximum solubility in PBS
[3] = Co-solvent solution formulation solubility matrix; format: physicochemical
[4] = local (subconjunctival), DMSO 31.4 mM, 314 nmol per eye, mice
[5] = local (subconjunctival), co-solvent solution 0.88 mM, 8.8 nmol per eye, mice

For `COc1cc(Nc2ncc(F)c(Nc3ccc4c(n3)NC(=O)C(C)(C)O4)n2)cc(OC)c1OC.O=S(=O)(O)c1ccccc1` [R406 phenylsulfonate salt], the “ratio of vitreous AUC to plasma AUC relative to R788 in suspension (250 nmol per eye)” value ([1]; R406 salt administered locally, 314 nmol total per eye) was 22 fold, the Cmax [1, 4] was 892 ± 350 nM and the “Ratio Vitreous AUClast/Plasma AUClast” value [1, 4] was 6.6. For the same molecule, the “Vitreous AUClast” value [1, 4] was 1,960 nM∙h, the “Vitreous Dose normalized AUC” value [1, 4] was 3.1 nM∙h/nmol and the “Vitreous MRT0-4h” value [1, 4] was 2.02 h. The “Vitreous Tlast” value [1, 4] was 4 h, the “Vitreous Tmax” value [1, 4] was 30 min and the “Vitreous MRT0-4h” value ([1]; local (subconjunctival), DMSO 31.4 mM, 314 nmol per eye, mice, listed as R406 salt) was ≥ 2 h. The Cmax [1, 5] was 41.3 ± 18 nM, the “Vitreous AUClast” value [1, 5] was 33.7 nM·h and the “Vitreous Dose normalized AUC” value [1, 5] was 1.9 nM∙h/nmol. The “Vitreous MRT0-4h” value [1, 5] was 0.782 h, the “Vitreous Tlast” value [1, 5] was 2 h and the “Vitreous Tmax” value [1, 5] was 30 min. For the same molecule, the “Vitreous MRT0-4h” value ([1]; local (subconjunctival), co-solvent solution 0.88 mM, 8.8 nmol per eye, mice, listed as R406 salt) was “less than 1 h”, the solubility [2] was 0.4 µM and the “R406 Solubility” value ([3]; Trial 1: 0.1% Tyloxapol, 99.9% PBS) was 11.7 mM. The “R406 Solubility” value ([3]; Trial 4: 3% Glycerin, 97% PBS) was 0.4 mM, the “R406 Solubility” value ([3]; Trial 5: 5% Cremaphor-eL, 95% PBS) was 170.1 mM and the “R406 Solubility” value ([3]; Trial 6: 10% pG, 90% PBS) was 0.4 mM. For the same molecule, the “R406 Solubility” value ([3]; Trial 7: 15% pPG, 85% PBS) was 15 mM, the “R406 Solubility” value ([3]; Trial 8: 0.2% Tween-80, 99.8% PBS) was 399.2 mM and the “R406 Solubility” value ([3]; Trial 9: 100% PBS) was 0.4 mM. For the same molecule, the “R406 Solubility” value ([3]; Trial 10: 2% PEG-8000, 0.2% Tween-80, 97.8% PBS) was 0.4 mM, the “R406 Solubility” value ([3]; Trial 11: 0.5% EtOH, 0.2% Tween-80, 85.8% PBS) was 0.6 mM and the “R406 Solubility” value ([3]; Trial 12: 3% Glycerin, 0.2% Tween-80, 96.8% PBS) was 1.0 mM. For the same molecule, the “R406 Solubility” value ([3]; Trial 13: 5% Cremaphor-eL, 0.2% Tween-80, 94.8% PBS) was 178.0 mM, the “R406 Solubility” value ([3]; Trial 14: 10% pG, 0.2% Tween-80, 99.8% PBS) was 0.9 mM and the “R406 Solubility” value ([3]; Trial 15: 15% pPG, 0.2% Tween-80, 85.8% PBS) was 31.4 mM. The “R406 Solubility” value ([3]; Trial 16: 2% PEG-8000, 0.5% EtOH, 97.5% PBS) was 1.5 mM, the “R406 Solubility” value ([3]; Trial 17: 2% PEG-8000, 3% Glycerin, 95% PBS) was 0.4 mM and the “R406 Solubility” value ([3]; Trial 18: 2% PEG-8000, 5% Cremaphor-eL, 93% PBS) was 144.0 mM. For the same molecule, the “R406 Solubility” value ([3]; Trial 19: 2% PEG-8000, 10% pG, 88% PBS) was 1.4 mM, the “R406 Solubility” value ([3]; Trial 20: 2% PEG-8000, 15% pPG, 83% PBS) was 22.9 mM and the “R406 Solubility” value ([3]; Trial 21: 0.5% EtOH, 3% Glycerin, 96.5% PBS) was 0.4 mM. The “R406 Solubility” value ([3]; Trial 22: 0.5% EtOH, 5% Cremaphor-eL, 94.5% PBS) was 183.9 mM, the “R406 Solubility” value ([3]; Trial 24: 0.5% EtOH, 15% pPG, 84.5% PBS) was 18.4 mM and the “R406 Solubility” value ([3]; Trial 25: 3% Glycerin, 5% Cremaphor-eL, 92% PBS) was 183.9 mM. For the same molecule, the “R406 Solubility” value ([3]; Trial 26: 3% Glycerin, 10% pG, 87% PBS) was 0.4 mM, the “R406 Solubility” value ([3]; Trial 27: 3% Glycerin, 15% pPG, 82% PBS) was 18.2 mM and the “R406 Solubility” value ([3]; Trial 28: 5% Cremaphor-eL, 10% pG, 85% PBS) was 161.5 mM. For the same molecule, the “R406 Solubility” value ([3]; Trial 29: 5% Cremaphor-eL, 15% pPG, 80% PBS) was 138.0 mM, the “R406 Solubility” value ([3]; Trial 30: 10% pG, 15% pPG, 75% PBS) was 23.3 mM and the “R406 Solubility” value ([3]; Trial 32: 0.5% EtOH, 5% Cremaphor-eL, 0.2% Tween-80, 94.3% PBS) was 830.9 mM. The “R406 Solubility” value ([3]; Trial 33: 0.5% EtOH, 3% Glycerin, 5% Cremaphor-eL, 0.2% Tween-80, 91.3% PBS) was 773.9 mM.
For `COc1cc(Nc2ncc(F)c(Nc3ccc4c(n3)NC(=O)C(C)(C)O4)n2)cc(OC)c1OC` [R406], the “maximum intraocular concentration that could be reached from subconjunctival route” value ([1]; DMSO control, 31.4 mM R406 in DMSO, subconjunctival, mice) was “approximately 1 μM” and the “maximal concentration achieved in the vitreous” value ([1]; subconjunctival, 10 μl of R406 solution formulation per eye, mice) was 0.05 µM.
